Experimental data reported in ChEMBL document CHEMBL1125706, “An approach to the design of receptor-type-selective non-peptide antagonists of peptidergic receptors: delta opioid antagonists” (J Med Chem, 1991).
Non-standard residues stand in square brackets, D forms with d. Residues, ends and D or L forms follow the SMILES beside them. *: point of attachment. Tyr(Nα,Nα-allyl2) = C=CCN(CC=C)[C@@H](Cc1ccc(O)cc1)C(=O)*; Aib = CC(C)(N)C(=O)O

What was measured:
[1] = target: Kappa-type opioid receptor (Cavia porcellus, UniProt P41144); test: Compound was evaluated for binding affinity of Opioid receptor kappa 1 in guinea pig brain membranes; format: cell membranes, Membrane
[2] = target: Delta-type opioid receptor (Mus musculus) (UniProt P32300); test: Compound was evaluated for antagonist potency in the mouse vas deferens preparation using [D-Ala2,D-Leu5]enkephalin (Opioid receptor delta 1); format: functional
[3] = target: T1, Opioid receptors; delta & kappa (Homo sapiens) (UniProt P41145+P41143); test: Ke selectivity ratio (kappa/delta) of the compound; format: protein assay
[4] = target: T2, Opioid receptors; mu & delta (Homo sapiens) (UniProt P41143+P35372); test: Ke selectivity ratio (mu/delta) of the compound; format: protein assay
[5] = target: T2, Opioid receptors; mu & delta (Homo sapiens); test: Ki selectivity ratio (mu/delta) of the compound; format: protein assay
[6] = target: T1, Opioid receptors; delta & kappa (Homo sapiens); test: Ki selectivity ratio (kappa/delta) of the compound; format: protein assay

T2 sequence (P35372 whole entry, looked up): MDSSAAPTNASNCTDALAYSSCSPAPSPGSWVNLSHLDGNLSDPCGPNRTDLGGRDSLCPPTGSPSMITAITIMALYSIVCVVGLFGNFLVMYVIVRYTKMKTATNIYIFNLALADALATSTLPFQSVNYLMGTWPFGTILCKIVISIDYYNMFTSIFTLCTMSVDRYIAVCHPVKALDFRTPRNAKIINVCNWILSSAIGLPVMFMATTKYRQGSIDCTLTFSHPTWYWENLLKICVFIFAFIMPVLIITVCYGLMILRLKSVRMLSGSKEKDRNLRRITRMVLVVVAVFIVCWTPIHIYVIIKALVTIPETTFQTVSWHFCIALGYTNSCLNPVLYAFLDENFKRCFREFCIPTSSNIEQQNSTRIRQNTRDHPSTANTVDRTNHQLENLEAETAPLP
T2 sequence (P41143 whole entry, looked up): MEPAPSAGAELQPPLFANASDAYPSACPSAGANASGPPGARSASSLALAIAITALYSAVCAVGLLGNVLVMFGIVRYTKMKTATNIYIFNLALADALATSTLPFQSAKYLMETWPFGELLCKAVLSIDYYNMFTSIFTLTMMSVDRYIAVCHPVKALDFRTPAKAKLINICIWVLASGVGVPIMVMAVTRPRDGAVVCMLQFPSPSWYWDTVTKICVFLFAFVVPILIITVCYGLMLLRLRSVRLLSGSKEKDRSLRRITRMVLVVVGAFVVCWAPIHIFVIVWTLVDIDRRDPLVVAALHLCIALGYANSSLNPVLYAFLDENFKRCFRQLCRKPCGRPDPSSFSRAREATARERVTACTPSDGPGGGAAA
T1 sequence (P41143 whole entry, looked up): as above
T1 sequence (P41145 whole entry, looked up): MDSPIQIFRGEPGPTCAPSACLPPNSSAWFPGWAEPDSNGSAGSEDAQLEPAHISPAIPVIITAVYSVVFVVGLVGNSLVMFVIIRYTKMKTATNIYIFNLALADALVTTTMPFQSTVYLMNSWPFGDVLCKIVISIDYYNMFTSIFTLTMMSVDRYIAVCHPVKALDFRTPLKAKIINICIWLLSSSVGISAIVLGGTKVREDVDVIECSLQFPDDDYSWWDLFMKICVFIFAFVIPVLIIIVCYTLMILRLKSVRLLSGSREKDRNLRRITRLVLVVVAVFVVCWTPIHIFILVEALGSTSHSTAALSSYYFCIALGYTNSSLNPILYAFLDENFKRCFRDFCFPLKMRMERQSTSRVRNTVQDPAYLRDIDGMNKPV
Delta-type opioid receptor (Mus musculus), sequence (P32300 whole entry): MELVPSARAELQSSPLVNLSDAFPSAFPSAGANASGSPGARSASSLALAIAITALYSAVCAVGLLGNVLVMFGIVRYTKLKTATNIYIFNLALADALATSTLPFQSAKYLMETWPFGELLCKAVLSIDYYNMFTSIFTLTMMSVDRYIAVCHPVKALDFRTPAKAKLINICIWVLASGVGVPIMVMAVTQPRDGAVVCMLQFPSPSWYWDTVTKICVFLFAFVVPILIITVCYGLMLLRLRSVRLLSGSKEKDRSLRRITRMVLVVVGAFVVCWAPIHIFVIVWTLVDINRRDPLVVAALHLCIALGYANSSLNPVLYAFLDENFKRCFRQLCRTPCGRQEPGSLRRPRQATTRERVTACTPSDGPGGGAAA
Kappa-type opioid receptor, sequence (P41144 whole entry): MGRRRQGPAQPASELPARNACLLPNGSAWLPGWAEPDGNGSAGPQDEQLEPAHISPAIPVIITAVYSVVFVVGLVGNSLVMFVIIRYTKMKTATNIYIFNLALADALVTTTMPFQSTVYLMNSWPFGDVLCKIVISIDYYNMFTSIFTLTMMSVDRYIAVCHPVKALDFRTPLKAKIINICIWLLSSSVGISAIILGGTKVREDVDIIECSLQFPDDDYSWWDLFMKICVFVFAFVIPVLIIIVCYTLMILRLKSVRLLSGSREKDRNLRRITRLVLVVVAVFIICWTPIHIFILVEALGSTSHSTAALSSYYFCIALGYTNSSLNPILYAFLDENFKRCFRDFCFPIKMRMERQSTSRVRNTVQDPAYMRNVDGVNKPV

| Structure (SMILES) | Ki [1] | Ke [2] | Selectivity ratio [3] | Selectivity ratio [4] | Selectivity ratio [5] | Selectivity ratio [6] |
| --- | --- | --- | --- | --- | --- | --- |
| Oc1ccc2c3c1O[C@H]1c4oc5ccccc5c4C[C@@]4(O)[C@@H](C2)N(CC2CC2)CC[C@]314 [NALTRIBEN] | 152 nM | 0.27 nM |  |  |  |  |
| C=CCN(CC=C)[C@@H](Cc1ccc(O)cc1)C(=O)NC(C)(C)C(=O)NC(C)(C)C(=O)N[C@@H](Cc1ccccc1)C(=O)N[C@@H](CC(C)C)C(=O)O ({Tyr(Nα,Nα-allyl2)}-[Aib][Aib]FL-OH) |  |  | > 18 | > 24 | > 29 | > 29 |
